Source: patent US20230143604A1, “QW DOSING OF GIP RECEPTOR AGONIST PEPTIDE COMPOUNDS AND USES THEREOF” (TAKEDA PHARMACEUTICAL COMPANY LIMITED, priority 2020, published 2023)
Starred links: 1 amine or outer side, 2 acyl side, 3 side chain; linkers in the order of their positions; H or OH if unused. Non-standard residues stand in square brackets, D forms with d. Residues, ends and D or L forms follow the SMILES beside them. Groups on a side chain read outwards from the residue. *: point of attachment. C18 diacid = O=C(O)CCCCCCCCCCCCCCCCC(=O)*; C17 diacid = O=C(O)CCCCCCCCCCCCCCCC(=O)*; γGlu = O=C(O)[C@H](CCC(=O)[*:2])N[*:1]; NMeY = CN[C@@H](Cc1ccc(O)cc1)C(=O)O; AEEA = NCCOCCOCC(=O)O; Aib = CC(C)(N)C(=O)O

Assay: Solubility in phosphate buffer pH 7.4
Summary of the method: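 Solubility at pH 7.4 determined by stepwise addition of 200 mM phosphate buffer in 100 μL increments to 3 mg peptide, mixing briefly each time, until no insoluble material remained, then measured by liquid chromatography.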

Row | Compound | solubility (pH 7.4, aqueous buffer, pH 7.4 Phosphate Buffer - Solubility, 200 mM Phosphate buffer pH 7.4) [mg/mL] | solubility (pH 7.4, solubility in phosphate buffer at pH 7.4, 200 mM phosphate buffer pH 7.4) [mg/mL] | solubility (pH 7.4) [mg/mL] | solubility (pH 7.4, aqueous buffer) [mg/mL]
1 | CC[C@H](C)[C@H](NC(=O)[C@H](CO)NC(=O)[C@H](Cc1ccc(O)cc1)NC(=O)[C@H](CC(=O)O)NC(=O)[C@H](CO)NC(=O)[C@@H](NC(=O)[C@H](Cc1ccccc1)NC(=O)[C@@H](NC(=O)CNC(=O)[C@H](CCC(=O)O)NC(=O)C(C)(C)NC(=O)[C@H](Cc1ccc(O)cc1)NC)[C@@H](C)O)[C@@H](C)CC)C(=O)N[C@@H](C)C(=O)N[C@@H](CC(C)C)C(=O)N[C@@H](CC(=O)O)C(=O)N[C@@H](CCCNC(=N)N)C(=O)NC(C)(C)C(=O)N[C@@H](CCCCNC(=O)COCCOCCNC(=O)COCCOCCNC(=O)CC[C@H](NC(=O)CCCCCCCCCCCCCCCC(=O)O)C(=O)O)C(=O)N[C@@H](CCC(N)=O)C(=O)NC(C)(C)C(=O)N[C@@H](CC(=O)O)C(=O)N[C@@H](Cc1ccccc1)C(=O)N[C@H](C(=O)N[C@@H](CC(N)=O)C(=O)N[C@@H](Cc1c[nH]c2ccccc12)C(=O)N[C@@H](CC(C)C)C(=O)N[C@@H](CC(C)C)C(=O)N[C@@H](C)C(=O)N[C@@H](CCC(N)=O)C(=O)N[C@@H](CCCNC(=N)N)C(=O)N1CCC[C@H]1C(=O)N[C@@H](CO)C(=O)N[C@@H](CO)C(=O)NCC(=O)N[C@@H](C)C(=O)N1CCC[C@H]1C(=O)N1CCC[C@H]1C(=O)N1CCC[C@H]1C(=O)N[C@@H](CO)C(N)=O)C(C)C [Compound 25] (H-[NMeY][Aib]EGTFISDYSIALDR[Aib]K([AEEA-AEEA-γGlu-C17 diacid])Q[Aib]DFVNWLLAQRPSSGAPPPS-NH2) | ≥ 30 | ≥ 15 | – | –
2 | CC[C@H](C)[C@H](NC(=O)[C@H](CO)NC(=O)[C@H](Cc1ccc(O)cc1)NC(=O)[C@H](CC(=O)O)NC(=O)[C@H](CO)NC(=O)[C@@H](NC(=O)[C@H](Cc1ccccc1)NC(=O)[C@@H](NC(=O)CNC(=O)[C@H](CCC(=O)O)NC(=O)C(C)(C)NC(=O)[C@H](Cc1ccc(O)cc1)NC)[C@@H](C)O)[C@@H](C)CC)C(=O)N[C@@H](C)C(=O)N[C@@H](CC(C)C)C(=O)N[C@@H](CC(=O)O)C(=O)N[C@@H](CCCNC(=N)N)C(=O)N[C@H](C(=O)N[C@@H](Cc1c[nH]cn1)C(=O)N[C@@H](CCC(N)=O)C(=O)N[C@@H](CCC(N)=O)C(=O)N[C@@H](CC(N)=O)C(=O)N[C@@H](Cc1ccccc1)C(=O)N[C@H](C(=O)N[C@@H](CC(N)=O)C(=O)N[C@@H](Cc1c[nH]c2ccccc12)C(=O)N[C@@H](CC(C)C)C(=O)N[C@@H](CC(C)C)C(=O)N[C@@H](C)C(=O)N[C@@H](CCC(N)=O)C(=O)N[C@@H](CCCCNC(=O)COCCOCCNC(=O)COCCOCCNC(=O)CC[C@H](NC(=O)CCCCCCCCCCCCCCCCC(=O)O)C(=O)O)C(N)=O)C(C)C)[C@@H](C)CC [Compound 5] (H-[NMeY][Aib]EGTFISDYSIALDRIHQQNFVNWLLAQK([AEEA-AEEA-γGlu-C18 diacid])-NH2) | – | – | ≥ 15 | ≥ 27
3 | CC[C@H](C)[C@H](NC(=O)[C@H](CO)NC(=O)[C@H](Cc1ccc(O)cc1)NC(=O)[C@H](CC(=O)O)NC(=O)[C@H](CO)NC(=O)[C@@H](NC(=O)[C@H](Cc1ccccc1)NC(=O)[C@@H](NC(=O)CNC(=O)[C@H](CCC(=O)O)NC(=O)C(C)(C)NC(=O)[C@@H](N)Cc1ccc(O)cc1)[C@@H](C)O)[C@@H](C)CC)C(=O)N[C@@H](C)C(=O)N[C@@H](CC(C)C)C(=O)N[C@@H](CC(=O)O)C(=O)N[C@@H](CCCCN)C(=O)NC(C)(C)C(=O)N[C@@H](C)C(=O)N[C@@H](CCC(N)=O)C(=O)N[C@@H](CCC(N)=O)C(=O)N[C@@H](CCCCNC(=O)COCCOCCNC(=O)COCCOCCNC(=O)CC[C@H](NC(=O)CC[C@H](NC(=O)CCCCCCCCCCCCCCCC(=O)O)C(=O)O)C(=O)O)C(=O)N[C@@H](Cc1ccccc1)C(=O)N[C@H](C(=O)N[C@@H](CCC(=O)O)C(=O)N[C@@H](Cc1c[nH]c2ccccc12)C(=O)N[C@@H](CC(C)C)C(=O)N[C@@H](CC(C)C)C(=O)N[C@@H](C)C(=O)N[C@@H](CCC(N)=O)C(=O)N[C@@H](CCCNC(=N)N)C(=O)NCC(=O)O)C(C)C [Compound 130] (H-Y[Aib]EGTFISDYSIALDK[Aib]AQQK([AEEA-AEEA-γGlu-γGlu-C17 diacid])FVEWLLAQRG-OH) | – | – | ≥ 15 | ≥ 30
